What was measured:
[1] = biological target: BCL-2 binding to BAD peptide (Homo sapiens, UniProt P10415); test: BCL2 SPR solution inhibition assay, BAD peptide surface (Biacore A100); conditions: read-out: BCL2_SPR IC50 BAD
Description: (§1) 33The present method includes utility of a Surface plasmon resonance (SPR)-based biosensor (Bia34core™′ GE Healthcare, Uppsala, Sweden) to characterize BCL-2 inhibitors. 35
(§2) 36Biacore™ utilizes the phenomenon of surface plasmon resonance (SPR) to detect and measure 37binding interactions. In a typical Biacore experiment, one of the interacting molecules (ligand) is i38mmobilized on a flexible dextran matrix while the interacting partner (analyte) is allowed to fl39ow across that surface. A binding interaction results in an increase in mass on the sensor surface 40and a corresponding direct change in the refractive index of the medium in the vicinity of the 41sensor surface. Changes in refractive index or signal are recorded in resonance units (R.U.) Signal 42changes due to association and dissociation of complexes are monitored in a non-invasive manne43r, continuously and in real-time, the results of which are reported in the form of a sensorgram.44
(§3) The SPR assay is con45figured to examine solution inhibition of BCL-2 binding to peptide derivatized sensor surfa46ces to generate IC50 values as a measure of inhibitor potency.
(§4) Biacore™ A100 (GE Healthcare, Uppsala, Sweden) was used to conduct all experiments reported herein. Sensor surface preparation and all interaction analyses experiments were performed at 25° C. Reagents were purchased from GE Healthcare. Running buffer containing 10 mM Hepes, pH7.4, 150 mM sodium chloride, 1.25 mM Dithiothreitol, 3% Dimethyl sulfoxide and 0.05% polysorbate 20 were utilized throughout all analyses.
(§5) Biotinylated BAK, BAD and NOXA peptides were diluted to 10 nM in running buffer and captured onto a sensor surface pre-derivatized with streptavidin (sensor chip SA) to peptide surface densities in the range 50-100 R.U. Peptide captured surfaces were blocked with 500 μM PEO2-Biotin.
(§6) Interaction analyses were performed by first equilibrating each sample within a 6 point three fold compound dilution series in the range 16 μM to […] with 56 nM BCL-2 for one hour during instrument start-up procedures. Protein compound mixtures were then injected over each peptide surface in parallel for 60 seconds at a flow-rate of 30 μL/min. 56 nM BCL-2 control samples were also prepared and run at regular intervals during the assay. Surface regeneration was performed at the end of each analysis cycle by two 30 second injections of 10 mM Glycine, pH 2.5, 1M Sodium Chloride, 0.05% polysorbate 20. Samples and control compound samples were run in duplicate and controls are also run at regular intervals during the assay to monitor surface and assay performance.
(§7) Data analyses are carried out using Biacore™ A100 evaluation software v1.1 to validate assay quality. Binding level report points were used relative to BCL-2 control samples to calculate % inhibition values for each compound protein mixture. […] The range of data shown in table 1 represents the high and low IC50 values obtained from multiple experiments.

[2] = biological target: BCL-2 binding to BAK peptide (Homo sapiens, UniProt P10415); test: BCL2 SPR solution inhibition assay, BAK peptide surface (Biacore A100); conditions: read-out: BCL2_SPR IC50 BAK
Description: as §1, §2, §3, §4, §5, §6, §7

Chain of BCL-2 binding to BAD peptide (P10415 whole entry): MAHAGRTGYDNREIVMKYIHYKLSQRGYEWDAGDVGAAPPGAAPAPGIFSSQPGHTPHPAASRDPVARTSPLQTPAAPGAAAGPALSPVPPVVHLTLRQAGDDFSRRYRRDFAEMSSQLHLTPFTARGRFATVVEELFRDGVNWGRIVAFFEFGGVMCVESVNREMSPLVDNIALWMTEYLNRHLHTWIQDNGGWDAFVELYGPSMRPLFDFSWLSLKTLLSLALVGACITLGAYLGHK
Chain of BCL-2 binding to BAK peptide (P10415 whole entry): as above

Row | Structure (SMILES) | IC50 [1] [µM] | IC50 [2] [µM]
1 | CCCCN(CCCC)C(=O)c1cc(C)n(-c2ccc(-c3ccc(F)c(F)c3)cc2C(=O)N2Cc3ccccc3C[C@H]2CO)n1 [Example 44] | 2.09 to 2.18 | 2.5 to 2.96
2 | CCCCN(CCCC)C(=O)c1cc(C)n(-c2ccc(-c3ccc(Cl)c(C(=O)N(C)C)c3)cc2C(=O)N2Cc3ccccc3C[C@H]2CO)n1 [Example 39] | 0.727 to 0.738 | 0.617 to 0.657
3 | CCCCN(CCCC)C(=O)c1nn(-c2ccc(-c3ccccc3)cc2C(=O)N2Cc3ccccc3C[C@H]2CO)c(C)c1Cl [Example 11] | 1.48 to 1.58 | 1.4 to 1.49
4 | CCCCN(CCCC)C(=O)c1cc(C)n(-c2ccc(-c3ccc4cc(OC)ccc4c3)cc2C(=O)N2Cc3ccccc3C[C@H]2CO)n1 [Example 57] | 0.605 to 0.653 | 0.556 to 0.689
5 | CCCCN(CCCC)C(=O)c1cc(C)n(-c2ccc(-c3ccc(Cl)c(C(N)=O)c3)cc2C(=O)N2Cc3ccccc3C[C@H]2CO)n1 [Example 34] | 0.6 to 0.623 | 0.426 to 0.429
6 | CCCCN(CCCC)C(=O)c1cc(C)n(-c2ccc(-c3c(OC)cccc3OC)cc2C(=O)N2Cc3ccccc3C[C@H]2CO)n1 [Example 65] | 10.6 to 12.3 | 6.34 to 6.9
7 | CCCCN(CCCC)C(=O)c1cc(C)n(-c2ccc(-c3ccc(OC)c(C)c3)cc2C(=O)N2Cc3ccccc3C[C@H]2CO)n1 [Example 29] | 0.767 to 0.82 | 0.563 to 0.621
8 | CCCCN(CCCC)C(=O)c1cc(C)n(-c2ccc(N3CCCCC3)cc2C(=O)N2Cc3ccccc3C[C@H]2CO)n1 [Example 18] | 2.36 to 2.74 | 1.65 to 1.93
9 | CCCCN(CCCC)C(=O)c1cc(C)n(-c2ccc(-c3cc(C)cc(F)c3)cc2C(=O)N2Cc3ccccc3C[C@H]2CO)n1 [Example 66] | 0.998 to 1.06 | 0.936 to 0.976
10 | CCCCN(CCCC)C(=O)c1cc(C)n(-c2ccc(-c3ccc(OC)c(OC)c3)cc2C(=O)N2Cc3ccccc3C[C@H]2CO)n1 [Example 52] | 0.567 to 0.629 | 0.471 to 0.479
11 | CCCCN(CCCC)C(=O)c1cc(C)n(-c2ccc(-c3cccc(C)c3)cc2C(=O)N2Cc3ccccc3C[C@H]2CO)n1 [Example 47] | 0.619 to 0.631 | 0.503 to 0.589
12 | CCCCN(CCCC)C(=O)c1cc(C)n(-c2ccc(-c3ccc(C(=O)N4CCCC4)c(F)c3)cc2C(=O)N2Cc3ccccc3C[C@H]2CO)n1 [Example 25] | 0.223 to 0.224 | 0.159 to 0.171
13 | CCCCN(CCCC)C(=O)c1cc(C)n(-c2ccc(-c3cc(C)cc(C)c3)cc2C(=O)N2Cc3ccccc3C[C@H]2CO)n1 [Example 43] | 0.593 to 0.614 | 0.886 to 0.905
14 | CCCCN(CCCC)C(=O)c1nn(-c2ccc(-c3cnn(Cc4ccccc4)c3)cc2C(=O)N2Cc3ccccc3C[C@H]2CO)c(C)c1Cl [Example 12] | 0.127 to 0.148 | 0.103 to 0.115
15 | CCCCN(CCCC)C(=O)c1cc(C)n(-c2ccc(-c3cccc(F)c3Cl)cc2C(=O)N2Cc3ccccc3C[C@H]2CO)n1 [Example 42] | 7.08 to 10.2 | 6.37 to 7.21
16 | CCCCN(CCCC)C(=O)c1cc(C)n(-c2ccc(-c3ccc(F)c(C#N)c3)cc2C(=O)N2Cc3ccccc3C[C@H]2CO)n1 [Example 32] | 0.41 to 0.465 | 0.359 to 0.375
17 | CCCCN(CCCC)C(=O)c1cc(C)n(-c2ccc(-c3cccc(C(=O)O)c3)cc2C(=O)N2Cc3ccccc3C[C@H]2CO)n1 [Example 4, (S)-4′-(3-(dibutylcarbamoyl)-5-methyl-1H-pyrazol-1-yl)-3′-(3-(hydroxymethyl)-1,2,3,4-tetrahydroisoquinoline-2-carbonyl)-[1,1′-biphenyl]-3-carboxylic acid] | 0.11 to 0.119 | 0.0866 to 0.091
18 | CCCCN(CCCC)C(=O)c1cc(C)n(-c2ccc(-c3cccc(OC(F)(F)F)c3)cc2C(=O)N2Cc3ccccc3C[C@H]2CO)n1 [Example 36] | 0.837 to 0.848 | 0.741 to 0.759
19 | CCCCN(CCCC)C(=O)c1cc(C)n(-c2ccc(-c3ccc(S(=O)(=O)N4CCOCC4)cc3)cc2C(=O)N2Cc3ccccc3C[C@H]2CO)n1 [Example 48] | 0.953 to 0.964 | 0.665 to 0.675
20 | CCCCN(CCCC)C(=O)c1cc(C)n(-c2ccc(N3CCN(c4ccccc4)CC3=O)cc2C(=O)N2Cc3ccccc3C[C@H]2CO)n1 [Example 2, (S)—N,N-dibutyl-1-(2-(3-(hydroxymethyl)-1,2,3,4-tetrahydroisoquinoline-2-carbonyl)-4-(2-oxo-4-phenylpiperazin-1-yl)phenyl)-5-methyl-1H-pyrazole-3-carboxamide] | 4.36 to 4.62 | 3.15 to 3.3
21 | CCCCN(CCCC)C(=O)c1cc(C)n(-c2ccc(-c3c(-c4ccccc4)noc3C)cc2C(=O)N2Cc3ccccc3C[C@H]2CO)n1 [Example 69] | 5.45 to 5.51 | 4.42 to 4.57
22 | CCCCN(CCCC)C(=O)c1cc(C)n(-c2ccc(-c3ccc(C)c(C)c3)cc2C(=O)N2Cc3ccccc3C[C@H]2CO)n1 [Example 50] | 0.881 to 0.933 | 0.793 to 0.883
23 | CCCCN(CCCC)C(=O)c1cc(C)n(-c2ccc(-c3cc(OC)c(OC)c(OC)c3)cc2C(=O)N2Cc3ccccc3C[C@H]2CO)n1 [Example 56] | 0.284 to 0.296 | 0.215 to 0.238
24 | CCCCN(CCCC)C(=O)c1cc(C)n(-c2ccc(-c3ccc(OCC)nc3)cc2C(=O)N2Cc3ccccc3C[C@H]2CO)n1 [Example 51] | 0.856 to 0.894 | 0.656 to 0.741
25 | CCCCN(CCCC)C(=O)c1nn(-c2ccc(-c3cccnc3)cc2C(=O)N2Cc3ccccc3C[C@H]2CO)c(C)c1Cl [Example 5] | 0.218 to 0.236 | 0.253 to 0.262
26 | CCCCN(CCCC)C(=O)c1nn(-c2ccc(-c3ccncc3OC)cc2C(=O)N2Cc3ccccc3C[C@H]2CO)c(C)c1Cl [Example 9] | 0.773 to 0.905 | 0.703 to 0.902
27 | CCCCN(CCCC)C(=O)c1cc(C)n(-c2ccc(-c3ccc(OC)c(Cl)c3)cc2C(=O)N2Cc3ccccc3C[C@H]2CO)n1 [Example 30] | 0.651 to 0.676 | 0.51 to 0.591
28 | CCCCN(CCCC)C(=O)c1cc(C)n(-c2ccc(-c3ccc4ccccc4c3)cc2C(=O)N2Cc3ccccc3C[C@H]2CO)n1 [Example 67] | 0.823 to 0.857 | 0.785 to 0.804

— patent US20140350014A1, “COMPOUNDS FOR INHIBITING THE INTERACTION OF BCL2 WITH BINDING PARTNERS” (NOVARTIS AG, priority 2011, published 2014)
